Assay results: patent US20220048915A1 (SHANGHAI PHARMACEUTICALS HOLDING CO., LTD., priority 2018, published 2022)

Tests used:
[1] = biological target: p38β (Homo sapiens, UniProt Q15759); assay: In vitro inhibition of p38 kinase (LANCE Ultra TR-FRET); type: biochemical; conditions: read-out: Kinase in vitro IC50(nM) p38β
[2] = Pharmacokinetic properties in rats; type: in vivo, SD rats; conditions: for Cmax / MRT / Tmax: male, SD, plasma; for Cmax / MRT / Tmax / Thalf (iv) / BA / AUClast (po): rat; for Cmax / MRT / Tmax / AUClast (po): po 6 mg/kg; for Thalf (iv): iv 3 mg/kg; for BA: po 6 mg/kg vs iv 3 mg/kg; for AUClast (po): 5-1440 minutes; for absorption compared with the positive compound VX-745 at the same dose: rats, 6 mg/kg
Experimental: Ten male SD rats, weighing 180-220 g (provided by Shanghai Xipuerbikai Laboratory Animal Co., Ltd, Certificate No.: 20130016008116). The rats were fasted for feed for 12-16 hours before the experiment but water was allowed.
Blood samples were collected from the fundus vein of rats before and at 2, 5, 15, 30, 60, 90, 120, 240, 360, 480, 600 and 1440 minutes after administration, respectively.
Blood samples were collected from the fundus vein of rats before and at 5, 15, 30, 60, 90, 120, 240, 360, 480, 600, 1440 minutes after administration respectively.
(§1) Blood samples were centrifuged at 8000 rpm for 5 minutes, and supernatant plasma was taken. To 50 μL of plasma samples was added 300 μL of acetonitrile containing internal standard (propranolol, 25 ng/mL) to precipitate the protein. After vortexing for 10 minutes and centrifuging at 6000 g and 4° C. for 10 minutes, the supernatant was taken and placed in a 96-well plate for determination of drug concentration in plasma by UPLC/MS-MS.

[3] = Pharmacokinetic properties in mice; type: in vivo, ICR mice; conditions: for absorption compared with the positive compound VX-745 at the same dose: 10 mg/kg; for Thalf (iv): iv 3 mg/kg; for Cmax / MRT / Tmax: male, ICR, mouse, plasma; for Cmax / MRT / Tmax / AUClast (po): po 10 mg/kg; for BA: po 10 mg/kg vs iv 3 mg/kg; for AUClast (po): 5-1440 minutes
Experimental: Forty-eight male ICR mice, weighing 18-22 g (provided by Shanghai Xipuerbikai Laboratory Animal Co., Ltd, Certificate No.: 20130016008116). The mice were […] for 12-16 hours before the experiment but water was allowed.
Blood samples were collected from the fundus vein of mice before and at 2, 5, 15, 30, 60, 90, 120, 240, 480, 600, and 1440 minutes of the administration, respectively.
Blood samples were collected from the fundus vein of mice before and at 5, 15, 30, 60, 90, 120, 240, 480 and 1440 minutes of administration, respectively.
2-3 time points were taken for each mouse. The mice were sacrificed at 5, 15, 30, 60 and 1440 minutes after the administration (3 mice per time point), and the brains were taken, rinsed with saline, dried on filter paper and weighed.
as §1

[4] = biological target: T1, p38γ (Homo sapiens, UniProt P53778); assay: In vitro inhibition of p38 kinase (LANCE Ultra TR-FRET); type: biochemical; conditions: read-out: Kinase in vitro IC50(nM) p38γ
T1 sequence (P53778 1-367): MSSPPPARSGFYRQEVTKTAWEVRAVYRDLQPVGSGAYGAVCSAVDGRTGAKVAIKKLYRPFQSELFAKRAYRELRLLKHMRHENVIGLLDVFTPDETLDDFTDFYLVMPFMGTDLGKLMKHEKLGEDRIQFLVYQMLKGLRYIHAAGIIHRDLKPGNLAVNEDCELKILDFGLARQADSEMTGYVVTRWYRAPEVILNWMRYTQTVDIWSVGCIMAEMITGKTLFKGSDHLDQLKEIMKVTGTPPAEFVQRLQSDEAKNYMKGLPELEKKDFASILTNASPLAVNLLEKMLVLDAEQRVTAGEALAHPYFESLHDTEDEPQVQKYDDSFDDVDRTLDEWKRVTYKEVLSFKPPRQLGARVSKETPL
Experimental: 10 mM of the storage solution of the test compound was taken and placed in a 96-well compound plate, and using DMSO for the compound at an initial concentration of 100×, which was then used as the first concentration and then carried out a 3-fold gradient dilution with DMSO for a total of 10 concentrations. After that, 1 μL of gradient dilutions were added to 19 μL of 1× reaction buffer to prepare 5× compound for later use. […] To the compound-free control well was added 2 μL of the following liquid: 19 μL of 1× reaction buffer with addition of 1 μL of DMSO. To the Min control well was added 2 μL of 250 mM EDTA.
1× of LANCE® Detection value Buffer was used to prepare a 2×Antibody for use, and the amount was 5 μL per well, at the same time 10 mM EDTA was prepared for later use. After the enzyme reaction was carried out for 30 minutes, 5 μL 10 mM EDTA was added to the 384-well plate and the reaction was carried out at room temperature for 5 minutes. Afterwards, 5 μL LANCE® Ultra Europium-anti-phospho-eIF4E-binding protein 1 (Thr37/46) was added to the 384-well plate and the reaction was carried out at room temperature for one hour.

[5] = biological target: p38α (Homo sapiens, UniProt Q16539); assay: as above; type: biochemical; conditions: read-out: Kinase in vitro IC50(nM) p38α
[6] = tested on: BV-2 cells; assay: Inhibition of inflammation in LPS-stimulated BV-2 cells (ELISA of inflammatory factors); type: cell-based; conditions: Mus musculus, 100 ng/mL LPS 4 hours; for Emax: read-out: BV-2 Max Inh. (%); for IC50: read-out: BV-2 Rf IC50
Experimental: Normal cultured 8th passage BV-2 cells were taken, and inoculated separately in 96-well plates at a certain cell density. The cell culture plates were cultured at 37° C. and 5% CO2 for 24 hours.
After inoculating the plate for 24 hours, the cell culture medium was removed, and then 100 μL of a 4-fold gradient dilution compound starting from 10,000 nM prepared in DMEM+10% FBS, where High control and Low control contained 0.1% DMSO without compound. With 100 μL per well, the cell culture plate was cultured at 37° C. with 5% CO2 for one hour.
The compound-containing cultures were removed. 100 ng/mL of LPS was prepared with DMEM+10% FBS culture medium, and then the compound was diluted in a 4-fold gradient from 10,000 nM with LPS-containing culture medium. In low control, the compound was replaced with 0.1% DMSO. In High control, 0.1% DMSO was prepared with culture medium without LPS. 100 μL per well, and the cell culture plates were cultured at 37° C. with 5% CO2 for 4 hours.
After 4 hours of LPS stimulation, 110 μL of the culture solution was aspirated, and centrifuged at 2000 rpm for 2 minutes. A further 90 μl of supernatant was aspirated and immediately put into −20° C. for freezing.
ELISA kits were used to detect the expression of inflammatory factors such as IL-10, TNFα, etc. The OD450 signal values were measured by microplate reader. The in vitro inhibitory activity of the compounds was calculated according to the following formula: Inhibition rate: Inhibition rate (%)=(signal value of control−signal value of administration)/(high signal value of control−low signal value of control)×100%. And according to the inhibition rate of each concentration, Graphpad Prism 5.0 was used to curve fit the […] signal values at each concentration and calculate the corresponding IC50, which is shown in Table 1.

p38α, sequence (Q16539 whole entry): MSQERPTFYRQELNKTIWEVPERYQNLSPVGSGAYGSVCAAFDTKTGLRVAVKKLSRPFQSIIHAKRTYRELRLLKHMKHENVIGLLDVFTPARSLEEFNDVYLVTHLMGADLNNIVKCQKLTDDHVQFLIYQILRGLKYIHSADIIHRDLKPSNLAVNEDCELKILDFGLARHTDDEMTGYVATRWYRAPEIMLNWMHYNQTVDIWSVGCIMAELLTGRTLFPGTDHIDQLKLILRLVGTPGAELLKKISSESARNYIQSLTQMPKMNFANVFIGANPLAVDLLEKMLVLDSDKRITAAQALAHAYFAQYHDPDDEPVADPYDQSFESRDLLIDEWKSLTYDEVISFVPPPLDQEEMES
p38β, sequence (Q15759 whole entry): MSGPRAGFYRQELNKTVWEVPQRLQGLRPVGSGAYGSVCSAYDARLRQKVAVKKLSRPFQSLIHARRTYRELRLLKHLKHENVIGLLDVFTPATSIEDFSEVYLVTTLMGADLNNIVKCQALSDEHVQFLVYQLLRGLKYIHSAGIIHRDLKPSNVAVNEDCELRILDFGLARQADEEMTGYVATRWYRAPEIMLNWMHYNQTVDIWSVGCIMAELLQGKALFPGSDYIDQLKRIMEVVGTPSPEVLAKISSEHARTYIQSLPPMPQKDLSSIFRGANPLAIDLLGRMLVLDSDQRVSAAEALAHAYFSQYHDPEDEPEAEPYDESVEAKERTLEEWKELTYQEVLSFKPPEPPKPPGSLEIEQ

| SMILES | IC50 [1] [nM] | Cmax [2] [ng/mL] | MRT [2] [h] | Tmax [2] [h] | Thalf (iv) [2] [h] | BA [2] [%] | AUClast (po) [2] | absorption compared with the positive compound VX-745 at the same dose [2] | absorption compared with the positive compound VX-745 at the same dose [3] | Thalf (iv) [3] [h] | Cmax [3] [ng/mL] | MRT [3] [h] | Tmax [3] [h] | BA [3] [%] | AUClast (po) [3] | IC50 [4] [nM] | IC50 [5] [nM] | IC50 [6] [nM] | Emax [6] [%] |
| --- | --- | --- | --- | --- | --- | --- | --- | --- | --- | --- | --- | --- | --- | --- | --- | --- | --- | --- | --- |
| O=c1ncn2nc(Oc3ccc(F)cc3)ccc2c1-c1c(Cl)cccc1Cl [Compound I-19, 5-(2,6-dichlorophenyl)-2-(4-fluorophenoxy)-6H-pyrimido[1,6-b]pyridazin-6-one] | 391 | 1090 | 5.73 | 3 | 2.81 | 87.87 | 7172 (h)*(ng/mL) | significantly higher | significantly higher | 3.73 | 1820 | 5.55 | 1.33 | 158.7 | 11457 (h)*(ng/mL) | > 3330 | 22.4 | 53.8 | 61.7 |
| O=c1ncn2nc(Oc3ccc(Cl)cc3Br)ccc2c1-c1c(Cl)cccc1Cl [Compound I-15, 2-(2-bromo-4-chlorophenoxy)-5-(2,6-dichlorophenyl)-6H-pyrimido[1,6-b]pyridazin-6-one] | 263 | – | – | – | – | – | – | – | – | – | – | – | – | – | – | > 3330 | 41.3 | 132 | 46 |
| O=c1ncn2nc(Oc3cc(Br)ccc3Cl)ccc2c1-c1c(Cl)cccc1Cl [Compound I-16, 2-(5-bromo-2-chlorophenoxy)-5-(2,6-dichlorophenyl)-6H-pyrimido[1,6-b]pyridazin-6-one] | 109 | – | – | – | – | – | – | – | – | – | – | – | – | – | – | > 3330 | 25.9 | 6.19 | 44.2 |
| O=c1ncn2nc(Oc3cc(Cl)ccc3Cl)ccc2c1-c1c(Cl)cccc1Cl [Compound I-22, 2-(2,5-dichlorophenoxy)-5-(2,6-dichlorophenyl)-6H-pyrimido[1,6-b]pyridazin-6-one] | 150 | – | – | – | – | – | – | – | – | – | – | – | – | – | – | > 3330 | 31.3 | 18.3 | 53.6 |
| O=c1ncn2nc(Oc3cccc(Br)c3)ccc2c1-c1c(Cl)cccc1Cl [Compound I-10, 2-(3-bromophenoxy)-5-(2,6-dichlorophenyl)-6H-pyrimido[1,6-b]pyridazin-6-one] | 434 | – | – | – | – | – | – | – | – | – | – | – | – | – | – | > 3330 | 60.6 | 75.6 | -60 |
| O=c1ncn2nc(Oc3ccc(Cl)cc3Cl)ccc2c1-c1c(Cl)cccc1Cl [Compound I-20, 2-(2,4-dichlorophenoxy)-5-(2,6-dichlorophenyl)-6H-pyrimido[1,6-b]pyridazin-6-one] | 96 | – | – | – | – | – | – | – | – | – | – | – | – | – | – | > 3330 | 17.6 | 23.3 | -60 |
| O=c1ncn2nc(Oc3ccc(F)c(Br)c3)ccc2c1-c1c(Cl)cccc1Cl [Compound I-5, 2-(3-bromo-4-fluorophenoxy)-5-(2,6-dichlorophenyl)-6H-pyrimido[1,6-b]pyridazin-6-one] | 389 | – | – | – | – | – | – | – | – | – | – | – | – | – | – | > 3330 | 49.3 | 94.3 | 44 |

More lines, main results first:

| IC50 [1] [nM] | Cmax [2] [ng/mL] | MRT [2] [h] | Tmax [2] [h] | Thalf (iv) [2] [h] | BA [2] [%] | AUClast (po) [2] | absorption compared with the positive compound VX-745 at the same dose [2] | absorption compared with the positive compound VX-745 at the same dose [3] | Thalf (iv) [3] [h] | Cmax [3] [ng/mL] | MRT [3] [h] | Tmax [3] [h] | BA [3] [%] | AUClast (po) [3] | IC50 [4] [nM] | IC50 [5] [nM] | IC50 [6] [nM] | SMILES | Emax [6] [%] |
| --- | --- | --- | --- | --- | --- | --- | --- | --- | --- | --- | --- | --- | --- | --- | --- | --- | --- | --- | --- |
| 101 | – | – | – | – | – | – | – | better | 3.32 | 1600 | 3.18 | 1 | 103.4 | 4522 (h)*(ng/mL) | > 3330 | 12.1 | 14.2 | O=c1ncn2nc(Oc3ccc(F)cc3F)ccc2c1-c1c(F)cccc1Cl [Compound I-62, 5-(2-chloro-6-fluorophenyl)-2-(2,4-difluorophenoxy)-6H-pyrimido[1,6-b]pyridazin-6-one] | 48.6 |
| 602 | – | – | – | – | – | – | – | – | – | – | – | – | – | – | > 3330 | 35.6 | 296 | O=c1ncn2nc(Oc3ccc(Br)cc3)ccc2c1-c1c(Cl)cccc1Cl [Compound I-39, 2-(4-bromophenoxy)-5-(2,6-dichlorophenyl)-6H-pyrimido[1,6-b]pyridazin-6-one] | 56.6 |
| 95.1 | 601 | 4.7 | 4 | 3.7 | 123.3 | 2994 (h)*(ng/mL) | better | better | 2.97 | 1280 | 4.34 | 2 | 89.17 | 6540 (h)*(ng/mL) | > 3330 | 10.7 | 21.5 | O=c1ncn2nc(Oc3cc(F)c(F)cc3F)ccc2c1-c1c(Cl)cccc1Cl [Compound I-43] | 50.9 |
| 111 | – | – | – | – | – | – | – | – | – | – | – | – | – | – | > 3330 | 23 | 41.5 | O=c1ncn2nc(Oc3ccc(F)c(F)c3F)ccc2c1-c1c(Cl)cccc1Cl [Compound I-40] | 47.7 |
| 406 | – | – | – | – | – | – | – | – | – | – | – | – | – | – | > 3330 | 34.1 | 678 | O=c1ncn2nc(Oc3c(F)ccc(F)c3Cl)ccc2c1-c1c(Cl)cccc1Cl [Compound I-29, 2-(2-chloro-3,6-difluorophenoxy)-5-(2,6-dichlorophenyl)-6H-pyrimido[1,6-b]pyridazin-6-one] | -50 |
